Experimental data as given in ChEMBL document CHEMBL1140684, “Phenylimidazole derivatives as new inhibitors of bacterial enoyl-ACP reductase FabK” (Bioorg Med Chem Lett, 2007).
≈ marks a conversion by molar mass, not a printed value.

Assays:
[1] = target: T1, Enoyl-(Acyl-carrier-protein) reductase (Streptococcus pneumoniae, UniProt Q9FBC5); assay: Inhibition of Streptococcus pneumoniae KU197 FabK
T1 sequence (Q9FBC5 whole entry): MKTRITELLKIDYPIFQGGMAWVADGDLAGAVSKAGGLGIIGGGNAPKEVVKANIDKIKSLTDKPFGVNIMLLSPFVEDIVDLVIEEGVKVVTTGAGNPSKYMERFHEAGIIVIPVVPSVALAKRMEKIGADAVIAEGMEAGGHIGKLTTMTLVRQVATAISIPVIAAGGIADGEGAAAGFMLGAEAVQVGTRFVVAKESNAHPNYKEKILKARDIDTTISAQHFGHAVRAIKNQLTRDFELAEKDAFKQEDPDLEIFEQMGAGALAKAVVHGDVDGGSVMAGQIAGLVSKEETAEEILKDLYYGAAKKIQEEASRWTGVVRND

[2] = Inhibition of Escherichia coli FabI
[3] = system: Streptococcus pneumoniae; assay: Antibacterial activity against Streptococcus pneumoniae KU197; format: functional

IC50 [1] [µM] | MIC [3] [mg/L] | Compound | IC50 [2] [µM]
> 32 |  | COc1ccc2sc(NC(=O)NCc3nc4ccccc4[nH]3)nc2c1 | > 32
> 32 |  | Nc1nc2ccc(C(=O)O)cc2s1 | 
24 | > 32 | CS(=O)(=O)c1ccc2nc(NC(=O)NCc3cccnc3)sc2c1 | 
> 32 | > 32 | O=C(CSc1nc2ccccc2[nH]1)Nc1nc2ccccc2s1 | 
> 32 | > 32 | O=C(CSc1nc2ccccc2[nH]1)Nc1nc2ccc(C(=O)O)cc2s1 | 
> 32 |  | O=C(O)CSc1nc2ccccc2[nH]1 | 
> 32 |  | COc1cccc2sc(NC(=O)NCc3nc4ccccc4[nH]3)nc12 | > 32
> 32 | > 32 | O=C(Nc1nc2ccccc2s1)OCc1nc2ccccc2[nH]1 | 
24 | > 32 | CS(=O)(=O)c1ccc2nc(NC(=O)NCc3cccs3)sc2c1 | 

Compound | IC50 [1] [µM] | MIC [3] [mg/L] | IC50 [2] [µM]
CS(=O)(=O)c1ccc2nc(NC(=O)NCc3nc(-c4ccccc4)c[nH]3)sc2c1 | 0.14 | 0.5 (≈ 1.17 µM) | > 32
O=C(NCc1nc2ccccc2[nH]1)Nc1nc2ccccc2s1 | 28 | 32 (≈ 99 µM) | > 32
COc1ccc2nc(NC(=O)NCc3nc4ccccc4[nH]3)sc2c1 | 7.6 | 16 (≈ 45.3 µM) | > 32
CS(=O)(=O)c1ccc2nc(NC(=O)NCc3nc4ccccc4[nH]3)sc2c1 | 0.76 | 4 (≈ 9.96 µM) | > 32
